According to ChEMBL document CHEMBL5465560, “Selectivity Literature for EUbOPEN Chemogenomic Library” (2024):

Tests used:
[1] = biological target: Serine/threonine-protein kinase pim-3 (Homo sapiens) (UniProt Q86V86); assay: Selectivity interaction (KinomeScan (DiscoverX)) EUB0000092b PIM3; conditions: at 10 µM
[2] = biological target: T1, Phosphatidylinositol 5-phosphate 4-kinase type-2 beta (Homo sapiens) (UniProt P78356); conditions: at 10 µM
T1 sequence (whole entry): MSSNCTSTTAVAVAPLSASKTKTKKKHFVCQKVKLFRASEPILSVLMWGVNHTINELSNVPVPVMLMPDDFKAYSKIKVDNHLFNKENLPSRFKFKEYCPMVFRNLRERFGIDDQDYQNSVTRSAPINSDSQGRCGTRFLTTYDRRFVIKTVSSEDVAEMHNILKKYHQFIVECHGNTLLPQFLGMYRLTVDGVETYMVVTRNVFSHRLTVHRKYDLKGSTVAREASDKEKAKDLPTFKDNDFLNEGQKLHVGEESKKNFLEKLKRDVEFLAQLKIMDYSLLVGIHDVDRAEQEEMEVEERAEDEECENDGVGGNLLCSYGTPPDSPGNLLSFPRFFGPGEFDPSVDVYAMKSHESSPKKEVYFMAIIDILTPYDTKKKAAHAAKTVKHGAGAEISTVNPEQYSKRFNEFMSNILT

[3] = biological target: T2, Serine/threonine-protein kinase ULK3 (Homo sapiens) (UniProt Q6PHR2); assay: Selectivity interaction (KinomeScan (DiscoverX)) EUB0000607a ULK3; conditions: at 10 µM
T2 sequence (whole entry): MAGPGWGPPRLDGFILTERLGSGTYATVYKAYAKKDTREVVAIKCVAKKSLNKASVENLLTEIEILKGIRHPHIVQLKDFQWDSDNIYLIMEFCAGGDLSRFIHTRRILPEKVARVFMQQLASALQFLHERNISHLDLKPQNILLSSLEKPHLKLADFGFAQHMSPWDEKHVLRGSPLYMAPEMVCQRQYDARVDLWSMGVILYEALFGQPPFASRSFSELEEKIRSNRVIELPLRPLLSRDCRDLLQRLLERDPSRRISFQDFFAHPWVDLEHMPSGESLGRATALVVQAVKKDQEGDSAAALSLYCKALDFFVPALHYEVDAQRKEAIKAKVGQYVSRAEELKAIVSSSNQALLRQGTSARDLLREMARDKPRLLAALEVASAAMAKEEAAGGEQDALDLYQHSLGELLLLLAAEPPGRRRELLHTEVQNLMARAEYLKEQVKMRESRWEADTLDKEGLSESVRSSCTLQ

[4] = biological target: MAP/microtubule affinity-regulating kinase 3 (Homo sapiens) (UniProt P27448); assay: Selectivity interaction (Kinase panel (literature)) EUB0001199aCl MARK3; conditions: at 1 µM
MAP/microtubule affinity-regulating kinase 3 (Homo sapiens), sequence (P27448 whole entry, looked up): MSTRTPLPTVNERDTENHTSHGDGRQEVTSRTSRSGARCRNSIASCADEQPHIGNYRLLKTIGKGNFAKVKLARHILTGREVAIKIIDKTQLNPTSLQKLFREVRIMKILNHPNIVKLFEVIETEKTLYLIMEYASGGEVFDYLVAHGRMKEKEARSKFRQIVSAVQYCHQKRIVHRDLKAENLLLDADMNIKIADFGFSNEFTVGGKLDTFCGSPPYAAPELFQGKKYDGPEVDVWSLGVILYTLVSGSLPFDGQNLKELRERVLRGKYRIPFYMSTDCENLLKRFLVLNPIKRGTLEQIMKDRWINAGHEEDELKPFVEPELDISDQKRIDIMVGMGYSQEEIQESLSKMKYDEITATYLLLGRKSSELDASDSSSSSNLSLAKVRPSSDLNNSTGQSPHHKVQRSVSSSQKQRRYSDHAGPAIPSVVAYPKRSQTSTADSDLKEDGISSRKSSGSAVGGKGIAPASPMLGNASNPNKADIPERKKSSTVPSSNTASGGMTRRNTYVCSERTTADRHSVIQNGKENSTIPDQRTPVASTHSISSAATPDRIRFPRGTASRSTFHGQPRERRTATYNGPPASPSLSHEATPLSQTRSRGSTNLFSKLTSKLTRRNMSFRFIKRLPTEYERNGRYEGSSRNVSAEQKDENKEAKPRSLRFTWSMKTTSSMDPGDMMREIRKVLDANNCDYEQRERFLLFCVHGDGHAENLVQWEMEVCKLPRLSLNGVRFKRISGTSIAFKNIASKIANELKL

[5] = biological target: T3, Mitogen-activated protein kinase kinase kinase 15 (Homo sapiens) (UniProt Q6ZN16); assay: Selectivity interaction (Ambit KINOMEscan and KiNATiv profiling in Jurkat cells) EUB0000090b MAP3K15; format: cell-based; conditions: at 1 µM
T3 sequence (whole entry): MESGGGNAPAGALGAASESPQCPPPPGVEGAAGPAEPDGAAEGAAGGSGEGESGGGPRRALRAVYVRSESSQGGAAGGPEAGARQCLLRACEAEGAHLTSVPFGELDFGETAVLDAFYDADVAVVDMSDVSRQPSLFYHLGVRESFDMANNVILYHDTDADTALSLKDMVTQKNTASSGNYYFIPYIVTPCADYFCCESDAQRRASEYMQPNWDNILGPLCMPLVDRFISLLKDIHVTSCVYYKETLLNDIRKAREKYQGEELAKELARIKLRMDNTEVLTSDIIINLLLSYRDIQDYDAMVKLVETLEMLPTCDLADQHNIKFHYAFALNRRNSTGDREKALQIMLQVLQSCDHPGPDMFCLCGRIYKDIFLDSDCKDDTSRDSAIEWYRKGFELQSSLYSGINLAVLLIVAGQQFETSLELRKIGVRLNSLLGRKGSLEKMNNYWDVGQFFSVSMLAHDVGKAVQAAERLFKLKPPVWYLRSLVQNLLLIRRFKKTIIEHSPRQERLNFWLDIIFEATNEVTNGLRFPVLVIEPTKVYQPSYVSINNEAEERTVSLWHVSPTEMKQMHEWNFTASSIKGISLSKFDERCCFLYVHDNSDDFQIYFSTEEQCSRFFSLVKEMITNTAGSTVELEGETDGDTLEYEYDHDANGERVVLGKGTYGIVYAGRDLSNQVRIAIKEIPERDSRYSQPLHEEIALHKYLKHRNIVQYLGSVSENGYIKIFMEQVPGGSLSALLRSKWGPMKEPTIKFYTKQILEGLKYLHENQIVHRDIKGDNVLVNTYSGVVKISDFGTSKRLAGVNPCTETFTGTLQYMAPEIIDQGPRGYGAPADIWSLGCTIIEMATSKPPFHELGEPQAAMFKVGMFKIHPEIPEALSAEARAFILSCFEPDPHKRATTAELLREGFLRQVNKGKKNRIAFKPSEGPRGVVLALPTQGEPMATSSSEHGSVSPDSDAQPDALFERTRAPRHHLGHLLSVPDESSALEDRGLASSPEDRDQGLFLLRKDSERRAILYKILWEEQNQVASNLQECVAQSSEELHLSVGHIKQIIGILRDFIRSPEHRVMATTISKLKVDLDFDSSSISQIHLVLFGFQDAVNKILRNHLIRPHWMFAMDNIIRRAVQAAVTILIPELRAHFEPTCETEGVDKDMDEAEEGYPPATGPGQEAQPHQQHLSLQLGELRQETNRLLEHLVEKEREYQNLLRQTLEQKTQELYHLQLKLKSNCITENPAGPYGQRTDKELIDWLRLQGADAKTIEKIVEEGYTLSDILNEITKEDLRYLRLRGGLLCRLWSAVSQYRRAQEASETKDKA

[6] = biological target: Interferon-induced, double-stranded RNA-activated protein kinase (Homo sapiens) (UniProt P19525); assay: Selectivity interaction (ActivX KiNativ screen (ex vivo kinase selectivity in human PBMCs)) EUB0001619a EIF2AK2; format: cell-based; conditions: PBMC, at 1 µM
Interferon-induced, double-stranded RNA-activated protein kinase (Homo sapiens), sequence (P19525 whole entry): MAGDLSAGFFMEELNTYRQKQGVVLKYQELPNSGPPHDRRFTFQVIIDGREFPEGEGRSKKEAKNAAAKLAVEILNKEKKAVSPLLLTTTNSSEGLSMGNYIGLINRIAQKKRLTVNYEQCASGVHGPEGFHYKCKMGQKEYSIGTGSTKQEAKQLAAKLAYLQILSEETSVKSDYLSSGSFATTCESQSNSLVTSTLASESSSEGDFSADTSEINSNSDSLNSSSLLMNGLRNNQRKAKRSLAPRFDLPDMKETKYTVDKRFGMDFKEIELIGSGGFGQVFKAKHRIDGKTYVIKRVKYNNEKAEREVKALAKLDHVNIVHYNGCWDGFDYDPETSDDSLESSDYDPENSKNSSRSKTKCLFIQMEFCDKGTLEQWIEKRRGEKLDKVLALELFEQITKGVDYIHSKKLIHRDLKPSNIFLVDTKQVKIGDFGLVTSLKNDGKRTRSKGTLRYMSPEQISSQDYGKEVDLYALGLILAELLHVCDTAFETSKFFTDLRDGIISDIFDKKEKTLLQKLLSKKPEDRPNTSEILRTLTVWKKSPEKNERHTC

[7] = biological target: Glycogen synthase kinase-3 beta (Homo sapiens, UniProt P49841); assay: Selectivity interaction (ActivX KiNativ screen (ex vivo kinase selectivity in human PBMCs)) EUB0001619a GSK3B; format: cell-based; conditions: PBMC, at 1 µM
Glycogen synthase kinase-3 beta, sequence (P49841 whole entry, looked up): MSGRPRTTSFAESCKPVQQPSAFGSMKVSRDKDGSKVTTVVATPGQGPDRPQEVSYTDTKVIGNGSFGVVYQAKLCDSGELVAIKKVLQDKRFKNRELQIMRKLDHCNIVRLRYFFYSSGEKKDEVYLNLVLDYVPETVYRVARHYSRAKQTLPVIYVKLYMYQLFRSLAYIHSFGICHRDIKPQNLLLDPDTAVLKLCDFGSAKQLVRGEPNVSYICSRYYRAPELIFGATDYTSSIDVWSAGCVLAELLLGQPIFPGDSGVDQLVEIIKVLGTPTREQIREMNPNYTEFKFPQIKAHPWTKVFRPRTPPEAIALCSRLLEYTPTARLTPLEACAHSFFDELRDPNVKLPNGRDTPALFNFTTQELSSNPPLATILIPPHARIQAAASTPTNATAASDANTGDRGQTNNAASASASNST

CCC(=O)N1CCN(c2ccc(-n3c(=O)ccc4cnc5ccc(-c6cnc7ccccc7c6)cc5c43)cc2C(F)(F)F)CC1
% of control [1]: 96%

Cc1cc([C@@H](C)Nc2ccccc2C(=O)O)c2nc(N3CCOCC3)cc(=O)n2c1 [AZD-6482]
% of control [2]: 100%

CNC(=O)Nc1ccc(-c2nc(N3CC4CCC(C3)O4)c3cnn(C4CCC5(CC4)OCCO5)c3n2)cc1
% of control [3]: 92%

CN1Cc2nccc(-c3cn(C)nc3-c3ccc(F)cc3)c2C1=O
% of inhibition [4]: -2%

CN(C)C/C=C/C(=O)Nc1ccc(C(=O)N2CCCC(Nc3ncc(Cl)c(-c4c[nH]c5ccccc45)n3)C2)cc1 (configuration not stated)
% of control [5]: 73%

N#Cc1cccc(-c2c[nH]c3ncnc(N4CCOCC4)c23)c1
% of inhibition [6]: 12%
% of inhibition [7]: 7%
